ChEMBL document CHEMBL1155618, “Junceellolides E-G, new briarane diterpenes from the West Pacific Ocean gorgonian Junceella fragilis” (J Nat Prod, 2000)
Calls of active or inactive are those of the source.

Tests used:
Type in all cases: functional, cell-based
[1] = system: HT-29; test: Cytotoxicity against human HT29 cells
[2] = system: A549; test: Cytotoxicity against human A549 cells
[3] = system: P388; test: Cytotoxicity against mouse P388 cells

Measured: Activity

CCC(=O)O[C@@H]1CC/C(C)=C\[C@@H]2OC(=O)[C@H](C)[C@@]2(O)[C@H](OC(C)=O)[C@H]2[C@]3(CC[C@H](OC(C)=O)[C@]12C)CO3
inactive: all assays above

CC(=O)O[C@@H]1[C@@H]2[C@@](C)([C@H](O)CC/C(C)=C\[C@@H]3OC(=O)[C@H](C)[C@]31O)[C@@H](O)CC[C@]2(C)O
inactive: all assays above

C=C1CC[C@H](OC(C)=O)[C@@]2(C)[C@H]1[C@@H](OC(C)=O)[C@@]1(O)[C@H](/C=C(/C)CC[C@H]2OC(=O)CC)OC(=O)[C@@H]1C
inactive: all assays above

C=C1CC[C@H](OC(C)=O)[C@@]2(C)[C@H]1[C@@H](OC(C)=O)[C@@]1(O)[C@H](/C=C(/C)CC[C@H]2OC(C)=O)OC(=O)[C@@H]1C
inactive: all assays above
